The supplement of paper PMC10307832

What was measured:
Assay in all cases: relative viability (nuclei count vs DMSO), 5 days (fraction); higher = more cells survive
Bicalutamide + Lapatinib = compound: CC(O)(CS(=O)(=O)c1ccc(F)cc1)C(=O)Nc1ccc(C#N)c(C(F)(F)F)c1 [Bicalutamide] + CS(=O)(=O)CCNCc1ccc(-c2ccc3ncnc(Nc4ccc(OCc5cccc(F)c5)c(Cl)c4)c3c2)o1 [Lapatinib] (partner 2 µM)
Procedure, shortened: (§1)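 Lung cancer cell lines, seeded in 1536-well plates, were treated the following day by pin tool with a single drug or with five library-drug doses (not always all listed) in √10 steps on top of a fixed anchor-drug dose. Cells were fixed and nuclei stained in one step after 5 days, and nuclei were counted. Relative viability is the nuclei count for treated wells divided by that for vehicle wells, reported as medians of duplicate plates.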

[1] = compound: C(C(=O)C(=O)O)Br [Bromopyruvate] + CS(=O)(=O)CCNCc1ccc(-c2ccc3ncnc(Nc4ccc(OCc5cccc(F)c5)c(Cl)c4)c3c2)o1 [Lapatinib] (partner 2 µM)
Procedure, shortened: as §1

Bicalutamide + Alpelisib = compound: CC(O)(CS(=O)(=O)c1ccc(F)cc1)C(=O)Nc1ccc(C#N)c(C(F)(F)F)c1 [Bicalutamide] + Cc1nc(NC(=O)N2CCC[C@H]2C(N)=O)sc1-c1ccnc(C(C)(C)C(F)(F)F)c1 [Alpelisib] (partner 2 µM)
Procedure, shortened: as §1

[2] = compound: C(C(=O)C(=O)O)Br [Bromopyruvate] + CS(=O)(=O)N1CCN(Cc2cc3nc(-c4cccc5[nH]ncc45)nc(N4CCOCC4)c3s2)CC1 [Pictilisib] (partner 1 µM)
Procedure, shortened: as §1

Cell Line | relative viability (Bicalutamide + Lapatinib; first compound 0.08 µM) | relative viability (Bicalutamide + Lapatinib; first compound 0.253 µM) | relative viability (Bicalutamide + Lapatinib; first compound 0.8 µM) | relative viability (Bicalutamide + Lapatinib; first compound 2.53 µM) | relative viability ([1]; first compound 1 µM) | relative viability ([1]; first compound 3.162 µM) | relative viability ([1]; first compound 10 µM) | relative viability ([1]; first compound 31.62 µM) | relative viability ([1]; first compound 100 µM) | relative viability (Bicalutamide + Alpelisib; first compound 0.08 µM) | relative viability (Bicalutamide + Alpelisib; first compound 0.253 µM) | relative viability (Bicalutamide + Alpelisib; first compound 0.8 µM) | relative viability (Bicalutamide + Alpelisib; first compound 2.53 µM) | relative viability ([2]; first compound 1 µM) | relative viability ([2]; first compound 3.162 µM) | relative viability ([2]; first compound 10 µM) | relative viability ([2]; first compound 31.62 µM) | relative viability ([2]; first compound 100 µM)
COR-L23 | 0.941 | 0.921 | 1.2 | 0.998 | 0.744 | 0.869 | 1.43 | 0.846 | 0.87 | 0.846 | 0.757 | 0.843 | 0.727 | 0.763 | 0.772 | 0.98 | 0.673 | 0.524
ABC-1 | 1.45 | 1.06 | 1.26 | 1.28 | 1.34 | 1.24 | 1.36 | 1.13 | 1.18 | 1.03 | 1.21 | 0.997 | 0.992 | 0.573 | 0.881 |  | 0.849 | 0.686
PC-14 | 0.301 | 0.295 | 0.452 | 0.297 | 0.317 | 0.317 | 0.361 | 0.276 | 0.325 | 0.916 | 0.952 | 0.969 | 0.869 | 0.714 | 0.692 | 0.898 | 0.808 | 0.611
A549 | 1.12 | 0.959 | 1.04 | 0.778 | 1.03 | 1.05 | 1.14 | 1.08 | 1 | 0.878 | 0.685 | 0.889 | 0.733 | 0.479 | 0.629 | 0.489 | 0.494 | 0.6
A-427 | 0.945 | 1.08 | 1.19 | 1.1 | 1.08 | 1.03 | 1.01 | 1.03 | 1.04 | 1.07 | 1.09 | 1.19 | 0.992 | 0.678 | 0.809 | 0.483 | 0.746 | 0.718
NCI-H1792 | 0.958 | 0.858 | 1.03 | 0.91 | 0.949 | 0.972 | 1.06 | 0.674 | 0.835 | 0.722 | 0.656 | 0.794 | 0.665 | 0.306 | 0.29 | 0.328 | 0.317 | 0.212
LCLC-97TM1 | 0.857 | 0.971 | 1.1 | 1 |  |  | 0.864 | 1.28 | 0.82 | 0.254 | 0.231 | 0.286 | 0.226 |  |  | 0.244 | 0.191 | 0.183
NCI-H1703 | 1.16 | 1.03 | 1.18 | 0.643 | 1.14 | 1.35 | 1.39 | 1.15 | 1.22 | 0.321 | 0.243 | 0.332 | 0.262 | 0.238 | 0.226 | 0.256 | 0.271 | 0.269
LCLC-103H |  |  |  |  |  |  |  |  |  | 1.04 | 0.907 | 1.1 | 1.02 | 0.508 | 0.596 | 0.684 | 0.524 | 0.592
RERF-LC-KJ | 0.904 | 0.862 | 1.07 | 0.705 | 0.874 | 0.892 | 0.984 | 0.868 | 0.829 | 0.756 | 0.81 | 0.948 | 0.777 | 0.537 | 0.563 | 0.644 | 0.617 | 0.495
BEN | 0.674 | 0.589 | 0.984 | 0.858 | 0.617 | 0.649 | 0.744 | 0.777 | 0.649 | 0.89 | 0.991 | 1.36 | 1.01 | 0.64 | 0.505 | 0.63 | 0.552 | 0.508
NCI-H1666 | 0.733 | 0.652 | 0.815 | 0.662 | 0.823 | 0.666 | 0.677 | 0.701 | 0.557 | 1.01 | 0.889 | 1.13 | 0.942 | 0.43 | 0.418 | 0.567 | 0.558 | 0.531
LC-2-ad | 0.851 | 0.873 | 1.08 | 0.957 | 0.977 | 0.982 | 0.933 | 0.921 | 0.971 | 0.99 | 0.921 | 0.852 | 0.894 | 0.477 | 0.494 | 0.513 | 0.572 | 0.548
SW 1573 | 1.03 | 0.909 | 1.3 | 1.11 | 1.11 | 1.03 | 1.09 | 1.05 | 0.904 | 0.678 | 0.639 | 0.831 | 0.689 | 0.463 | 0.438 | 0.46 | 0.521 | 0.303
ChaGo-K-1 |  |  |  |  |  |  |  |  |  |  |  |  |  | 0.978 | 0.766 | 0.581 | 0.685 | 0.622
COR-L 105 | 0.333 | 0.353 | 0.39 | 0.311 | 0.393 | 0.385 | 0.362 | 0.353 | 0.392 | 0.957 | 0.89 | 1 | 0.83 | 0.524 | 0.371 | 0.361 | 0.434 | 0.379
NCI-H1975 | 0.851 | 0.854 | 1.12 | 0.785 | 0.876 | 1.08 | 1.01 | 0.838 | 0.833 | 0.642 | 0.615 | 0.795 | 0.526 | 0.301 | 0.318 | 0.323 | 0.326 | 0.3
Calu-6 | 1.16 | 1.01 | 1.12 | 1.08 | 1.04 | 1.15 | 1.08 | 1.06 | 0.856 | 1.04 | 0.908 | 1.04 | 0.868 | 0.898 | 0.958 | 0.966 | 0.743 | 0.829
NCI-H2009 | 1.23 | 0.997 | 1.2 | 0.758 | 0.903 | 0.783 | 0.877 | 0.874 | 0.909 | 1.25 | 1.14 | 1.13 | 1.18 | 0.764 | 0.831 | 0.742 | 0.709 | 0.613
NCI-H441 |  |  |  |  |  |  |  |  |  | 0.968 |  | 0.856 | 0.876 | 0.428 | 0.543 | 0.498 | 0.466 | 0.571
